Measured values from patent publication US20250352600A1, “DIETARY SUPPLEMENTS FOR BRAIN HEALTH” (Melaleuca, Inc., priority 2024, published 2025).

How the values were obtained:
Type in all cases: in vivo, human
[1] = Moderate-Caffeine User Follow-Up, Profile of Mood States (POMS) survey; design: Fatigue / Vigor / Confusion / TMD / Tension / Esteem-related Affect: scale not given here; conditions: moderate-caffeine users; for TMD: total mood disturbance
Text: (§1) The study included subjective tests (POMS and product questions) only. […] There were 7 male and 6 female participants with an average age of 39.5 years.

[2] = Low-Caffeine User Clinical Study, Profile of Mood States (POMS) survey; conditions: low-caffeine users
Text: This study included subjective (POMS and product questions) and objective (CNSVS) tests.

[3] = Moderate-Caffeine User Follow-Up, product questions (statement agreement)
Text: as §1

[4] = Moderate-Dose Caffeine Cohort (mean 338 mg/d), n = 12-13
[5] = Statement Agreement, Moderate-Dose Caffeine Cohort (mean 338 mg/d), n = 12-13

Cn1c(=O)c2c(ncn2C)n(C)c1=O [Caffeine, caffeine]
Confusion ([1]; n = 12-13, Post): 1.17 ± 2.92
Depression ([1]; n = 12-13, Post): 1.17 ± 4.04
Esteem-related Affect ([1]; n = 12-13, Post): 15.92 ± 3.15
Fatigue ([1]; n = 12-13, Post): 2.25 ± 3.02
Tension ([1]; n = 12-13, Post): 1.83 ± 3.54
Fatigue ([1]; n = 12-13, Post, listed as caffeine): did not relieve
Confusion ([1]; n = 12-13, Pre): 2.25 ± 2.38
Depression ([1]; n = 12-13, Pre): 1.50 ± 3.45
Esteem-related Affect ([1]; n = 12-13, Pre): 14.42 ± 3.23
Fatigue ([1]; n = 12-13, Pre): 5.58 ± 4.70
Tension ([1]; n = 12-13, Pre): 3.00 ± 2.73
Vigor ([1]; n = 12-13, Pre): 4.25 ± 2.93
TMD ([1]; n = 12-13, Post): −17.17 ± 17.69
TMD ([1]; n = 12-13, Pre): −4.92 ± 13.92
Anger ([2]; n = 30, Post): 0.90
Confusion ([2]; n = 30, Post): 1.20
Depression ([2]; n = 30, Post): 0.60
Esteem-related Affect ([2]; n = 30, Post): 14.63
Fatigue ([2]; n = 30, Post): 2.77
Tension ([2]; n = 30, Post): 2.80
Vigor ([2]; n = 30, Post): 7.27
Anger ([2]; n = 30, Pre): 1.55
Confusion ([2]; n = 30, Pre): 2.93
Depression ([2]; n = 30, Pre): 1.79
Esteem-related Affect ([2]; n = 30, Pre): 13.59
Fatigue ([2]; n = 30, Pre): 5.66
Tension ([2]; n = 30, Pre): 4.48
Vigor ([2]; n = 30, Pre): 5.69
TMD ([2]; total mood disturbance, n = 30, Post): −13.63
I am in a better mood after having taken the product, % Top 2 Box [3, 4]: 42%
I had no trouble recalling [things] after taking the product, % Top 2 Box [3, 4]: 58%
I was better able to focus after taking the product, % Top 2 Box [3, 4]: 58%
I was more alert after taking the product, % Top 2 Box [3, 4]: 58%
The product enhanced my ability to pay attention, % Top 2 Box [3, 4]: 58%
The product improved my energy levels, % Top 2 Box [3, 4]: 67%
I am in a better mood after having taken the product, Scores [3, 5]: 3.33
I had no trouble recalling [things] after taking the product, Scores [3, 5]: 3.67
I was better able to focus after taking the product, Scores [3, 5]: 3.25
I was more alert after taking the product, Scores [3, 5]: 3.67
The product enhanced my ability to pay attention, Scores [3, 5]: 3.50
The product improved my energy levels, Scores [3, 5]: 3.75
performance of treatment arms among those with moderate caffeine intake ([3]; moderate-caffeine users): performed better
